For 20 molecules, Ki and IC50 results are on record in patent US20120165319A1, “INHIBITORS OF INTERLEUKIN-1 BETA CONVERTING ENZYME” (VERTEX PHARMACEUTICALS INCORPORATED, priority 1995, published 2012).

By Ki is commonly meant the dissociation constant of the complex between target and ligand, obtained from inhibition or displacement. Low values mean tighter binding, high ones weaker binding. As a reminder, the IC50 is the midpoint of a concentration-inhibition curve.

Structures can show the parent of a compound that is named as a salt.

The target in one assay is T1, ICE (Homo sapiens, UniProt P29466).
T1 sequence (P29466 120-297 limits assumed): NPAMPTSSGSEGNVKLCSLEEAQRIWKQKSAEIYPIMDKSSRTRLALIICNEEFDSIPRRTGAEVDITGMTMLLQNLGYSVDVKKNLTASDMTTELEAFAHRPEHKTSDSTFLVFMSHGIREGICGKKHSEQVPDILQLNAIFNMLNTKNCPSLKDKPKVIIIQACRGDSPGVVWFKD
T1 sequence (P29466 317-404 limits assumed): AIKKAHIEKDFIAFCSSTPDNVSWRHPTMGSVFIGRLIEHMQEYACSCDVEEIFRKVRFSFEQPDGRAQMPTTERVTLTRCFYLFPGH
The assay can be described thus: Enzyme assay with UV-visible substrate (visible ICE assay, Succinyl-Tyr-Val-Ala-Asp-pNitroanilide). The note with it: Table 5. In kind it is biochemical. The method in brief:
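ICE preincubated with inhibitor in DMSO for 15 min at room temperature, then Suc-Tyr-Val-Ala-Asp-pNA added. pNA release read at 405-603 nm for 20 min at 37 °C, rate from linear fit in mOD/min. Ki and inhibition mode from fits of rates at varying inhibitor concentrations to standard kinetic equations.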

Assay [1] deals with IL-1β, human peripheral blood mononuclear cells (PBMC). The assay can be described thus: PBMC cell assay: IL-1β assay with human PBMC or enriched adherent mononuclear cells, LPS-stimulated. The assay is classed as cell-based. The note with it: * = values obtained upon reassay. The source says:
IL-1β Assay with a Mixed Population of Human Peripheral Blood Mononuclear Cells (PBMC) or Enriched Adherent Mononuclear Cells
Processing of pre-IL-1β by ICE can be measured in cell culture using a variety of cell sources. Human PBMC obtained from healthy donors provides a mixed population of lymphocyte subtypes and mononuclear cells that produce a spectrum of interleukins and cytokines in response to many classes of physiological stimulators. Adherent mononuclear cells from PBMC provides an enriched source of normal monocytes for selective studies of cytokine production by activated cells.
An initial dilution series of test compound in DMSO or ethanol is prepared, with a subsequent dilution into RPMI-10% FBS media (containing 2 mM L-glutamine, 10 mM HEPES, 50 U and 50 ug/ml pen/strep) respectively to yield drugs at 4× the final test concentration containing 0.4% DMSO or 0.4% ethanol. The final concentration of DMSO is 0.1% for all drug dilutions. A concentration titration which brackets the apparent Ki for a test compound determined in an ICE inhibition assay is generally used for the primary compound screen.
Generally 5-6 compound dilutions are tested and the cellular component of the assay is performed in duplicate, with duplicate ELISA determinations on each cell culture supernatant.
PBMC Isolation and IL-1 Assay:
Buffy coat cells isolated from one pint human blood (yielding 40-45 ml final volume plasma plus cells) are diluted with media to 80 ml and LeukoPREP separation tubes (Becton Dickinson) are each overlaid with 10 ml of cell suspension. After 15 min centrifugation at 1500-1800×g, the plasma/media layer is aspirated and then the mononuclear cell layer is collected with a Pasteur pipette and transferred to a 15 ml conical centrifuge tube (Corning). Media is added to bring the volume to 15 ml, gently mix the cells by inversion and centrifuge at 300×g for 15 min. Resuspend the PBMC pellet in a small volume of media, count cells and adjust to 6×10^6 cells/ml.
For the cellular assay, 1.0 ml of the cell suspension is added to each well of a 24-well flat bottom tissue culture plate (Corning), 0.5 ml test compound dilution and 0.5 ml LPS solution (Sigma #L-3012; 20 ng/ml solution prepared in complete RPMI media; final LPS concentration 5 ng/ml). The 0.5 ml additions of test compound and LPS are usually sufficient to mix the contents of the wells. Three control mixtures are run per experiment, with either LPS alone, solvent vehicle control, and/or additional media to adjust the final culture volume to 2.0 ml. The cell cultures are incubated for 16-18 hr at 37° C. in the presence of 5% CO2.
At the end of the incubation period, cells are harvested and transferred to 15 ml conical centrifuge tubes. After centrifugation for 10 min at 200×g, supernatants are harvested and transferred to 1.5 ml Eppendorf tubes. It may be noted that the cell pellet may be utilized for a biochemical evaluation of pre-IL-1β and/or mature IL-1β content in cytosol extracts by western blotting or ELISA with pre-IL-1β specific antisera.
Isolation of Adherent Mononuclear Cells:
PBMC are isolated and prepared as described above. Media (1.0 ml) is first added to wells followed by 0.5 ml of the PBMC suspension. After a one hour incubation, plates are gently shaken and nonadherent cells aspirated from each well. Wells are then gently washed three times with 1.0 ml of media and final resuspended in 1.0 ml media. The enrichment for adherent cells generally yields 2.5−3.0×10^5 cells per well. The addition of test compounds, LPS, cell incubation conditions and processing of supernatants proceeds as described above.
We have used Quantikine kits (R&D Systems) for measurement of mature IL-1β. Assays are performed according to the manufacturer's directions. Mature IL-1β levels of about 1-3 ng/ml in both PBMC and adherent mononuclear cell positive controls are observed. […]

Take `O=C[C@H](CC(=O)O)NC(=O)[C@@H]1CCCN2C(=O)CC[C@H](NC(=O)C3CCCCC3)C(=O)N12` [Compound 426]: on ICE, the Ki was determined as 90 nM. Also, the half-inhibitory concentration (IC50) is 2500 nM in assay [1] and 4500 nM in assay [1] (Homo sapiens, PBMC).

At ICE, `CC(=O)N1C[C@H](NC(=O)c2ccccc2)C(=O)N(CC(=O)N[C@@H](CC(=O)O)C(=O)c2nc3cc(Cl)cc(Cl)c3o2)c2ccccc21` [Compound 609b, (3S)-3-[(3S)-2-Oxo-3-benzoylamino-5-acetyl-2,3,4,5-tetrahydro-1H-1,5-benzodiazepin-1-acetylamino]-4-(5,7-dichlorobenzoxazol-2-yl)-4-oxo-butyric acid] had a Ki of 27 nM. In assay [1] (Homo sapiens, PBMC), the IC50 was greater than 20000 nM.

`COC(=O)Nc1ccc(C(=O)N[C@H]2CCC(=O)N3CCC[C@@H](C(=O)N[C@H](C=O)CC(=O)O)N3C2=O)cc1` [Compound 490]: the affinity at ICE, expressed as Ki, was 4.3 nM. In assay [1] (Homo sapiens, PBMC), the concentration for half-maximal inhibition (IC50) turned out to be 1000 nM.

At ICE, `CC(=O)CC(=O)N1C[C@H](NC(=O)c2ccccc2)C(=O)N(CC(=O)N[C@H](C=O)CC(=O)O)c2ccccc21` [Compound 605g, (3S)-3-[(3S)-2-Oxo-3-benzoylamino-5-acetoacetyl-2,3,4,5-tetrahydro-1H-1,5-benzodiazepin-1-acetylamino]-4-oxo-butyric acid] returned a Ki of 165 nM. The IC50 in assay [1] (Homo sapiens, PBMC) was 22500 nM.

At ICE, `O=C[C@H](CC(=O)O)NC(=O)[C@@H]1CCCN2C(=O)CC[C@H](NC(=O)c3ccc(CO)cc3)C(=O)N12` [Compound 479] returned a Ki of 15 nM. Besides, the 50% inhibitory concentration (IC50) in assay [1] (Homo sapiens, PBMC) came to 900 nM.

For `COC(=O)N[C@H]1CCC(=O)N2CCC[C@@H](C(=O)N[C@H](C=O)CC(=O)O)N2C1=O` [Compound 419], on ICE, the Ki amounted to 280 nM. In assay [1] (Homo sapiens, PBMC), this molecule gave an IC50 greater than 8000 nM.

Regarding `O=C[C@H](CC(=O)O)NC(=O)CN1C(=O)[C@@H](NC(=O)c2ccccc2)CN(C(=O)Cc2ccncc2)c2ccccc21` [Compound 605s, (3S)-3-[(3S)-2-Oxo-3-benzoylamino-5-(4-pyridylacetyl)-2,3,4,5-tetrahydro-1H-1,5-benzodiazepin-1-acetylamino]-4-oxo-butyric acid], affinity on ICE was put at a Ki of 150 nM. In addition, the IC50 in assay [1] (Homo sapiens, PBMC) was 6000 nM.

In turn, `CCS(=O)(=O)N[C@H]1CCC(=O)N2CCC[C@@H](C(=O)N[C@H](C=O)CC(=O)O)N2C1=O` [Compound 421] yielded a Ki at ICE of 200 nM. The concentration for half-maximal inhibition (IC50) in assay [1] stood at 4600 nM; in assay [1] (Homo sapiens, PBMC) it was 4300 nM.

Consider `O=C[C@@H](CCC(=O)O)NC(=O)[C@@H]1CCCN2C(=O)CC[C@H](NC(=O)c3ccccc3)C(=O)N12` [Compound 238e, [4R,(1S,9S)]-4-[9-(Benzoylamino)-6,10-dioxo-1,2,3,4,7,8,9,10-octahydro-6H-pyridazino-[1,2-a][1,2]diazepine-1-carboxamido]-5-oxopentanoic acid], for which the affinity at ICE corresponds to a Ki of 500 nM. Moreover, inhibition in assay [1] (Homo sapiens, PBMC) was half-maximal at 4250 nM (IC50).

As for `CS(=O)(=O)N[C@H]1CCC(=O)N2CCC[C@@H](C(=O)N[C@@H](CC(=O)O)C(=O)c3ncc(-c4c(Cl)cccc4Cl)o3)N2C1=O` [Compound 220b, [3S(1S,9S)]-4-[5-(2,6-Dichlorophenyl)oxazol-2-yl]-3-(6,10-dioxo-9-methylsulphonylamino-1,2,3,4,7,8,9,10-octahydro-6H-pyridazino[1,2-a][1,2]diazepine-1-carboxamido)-4-oxobutanoic acid], the Ki on ICE was found to be 600 nM. In addition, the half-maximal inhibitory concentration (IC50) in assay [1] (Homo sapiens, PBMC) was 2120 nM.

Consider `C[C@H]1CC(=O)N2CCC[C@@H](C(=O)N[C@H](C=O)CC(=O)O)N2C(=O)[C@H]1NC(=O)c1ccccc1` [Compound 257, [3S(1S,8S,9S)]3-(9-benzoylamino-6,10-dioxo-8-methyl-1,2,3,4,7,8,9,10-octahydro-6H-pyridazino-[1,2-a][1,2]diazepine-1-carboxamido)-4-oxobutanoic acid], for which, on ICE, the affinity, expressed as Ki, was 13 nM. Moreover, the IC50 in assay [1] is 6600 nM; in assay [1] (Homo sapiens, PBMC), 11000 nM.

`O=C[C@H](CC(=O)O)NC(=O)[C@@H]1CCCN2C(=O)CC[C@H](NC(=O)c3ccc(F)c(Cl)c3)C(=O)N12` [Compound 459]: at ICE, affinity was put at a Ki of 5 nM. This molecule also displayed an IC50 in assay [1] (Homo sapiens, PBMC) of 1800 nM.

`O=C[C@H](CC(=O)O)NC(=O)[C@@H]1CCCN2C(=O)CC[C@H](NC(=O)c3ccc(Cl)c(Cl)c3)C(=O)N12` [Compound 464] came in with a Ki on ICE of 2.5 nM. Further, the half-inhibitory concentration (IC50) in assay [1] (Homo sapiens, PBMC) was 1000 nM.

On ICE, `O=C[C@H](CC(=O)O)NC(=O)[C@@H]1CCCN2C(=O)CC[C@H](NC(=O)c3ccc4ccccc4c3O)C(=O)N12` [Compound 449] came in with a Ki of 12 nM. In assay [1] (Homo sapiens, PBMC), this molecule yielded an IC50 of 1500 nM.

Consider `O=C[C@H](CC(=O)O)NC(=O)[C@@H]1CCCN2C(=O)CC[C@H](NC(=O)c3ccc(F)c(F)c3)C(=O)N12` [Compound 458], for which the affinity on ICE, expressed as Ki, was 20 nM. The IC50 in assay [1] (Homo sapiens, PBMC) is 2900 nM.

The molecule `O=CC(CC(=O)O)NC(=O)CN1C(=O)[C@@H](NCc2ccccc2)CN(C(=O)CCc2ccccc2)c2ccccc21` (stereo partly drawn) [Compound 605v, (3S)3-[(3S)2-Oxo-3-benzylamino-5-(3-phenylpropionyl)-2,3,4,5-tetrahydro-1H-1,5-benzodiazepin-1-acetylamino]-4-oxo-butyric acid trifluoroacetic acid salt] showed a Ki on ICE of 1100 nM. The molecule further showed an IC50 in assay [1] (Homo sapiens, PBMC) greater than 30000 nM.

`O=C[C@H](CC(=O)O)NC(=O)[C@@H]1CCCN2C(=O)CC[C@H](NC(=O)C3CC3)C(=O)N12` [Compound 413] had a Ki at ICE of 750 nM. The IC50 in assay [1] (Homo sapiens, PBMC) is 6200 nM.

Regarding `O=C[C@H](CC(=O)O)NC(=O)[C@@H]1CCCN2C(=O)CC[C@H](NC(=O)c3cnc4ccccc4c3)C(=O)N12` [Compound 436], the Ki on ICE turned out to be 7.5 nM. This molecule came in with an IC50 in assay [1] (Homo sapiens, PBMC) of 2700 nM.

Regarding `O=C[C@H](CC(=O)O)NC(=O)[C@@H]1CCCN2C(=O)CC[C@H](NC(=O)c3ccc(F)cc3)C(=O)N12` [Compound 463], affinity on ICE was put at a Ki of 14 nM. Further, the IC50 amounted to 2800 nM in assay [1] and 2400 nM in assay [1] (Homo sapiens, PBMC).

For `O=C[C@H](CC(=O)O)NC(=O)[C@@H]1CCCN2C(=O)CC[C@H](NC(=O)c3ccc(OC(=O)c4ccccc4)cc3)C(=O)N12` [Compound 491], the affinity at ICE corresponds to a Ki of 5 nM. In assay [1] (Homo sapiens, PBMC), this molecule showed an IC50 of 2500 nM.
